The results in this text go back to PubChem BioAssay AID179 (DTP/NCI, 2004).

Activity calls are given as the source filed them.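 The calls were made as follows: active = compounds giving half or more protection of infected cells from virus-caused growth loss, again on retest; inactive = the rest.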

This assay concerns CEM cells HIV-1 protection, formazan growth assay. The assay is described as follows: NCI AIDS Antiviral Assay. The note with it: for IC50: measured here: growth of uninfected CEM cells. The method, boiled down:
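CEM (human) cells, HIV-1 infected vs uninfected, 5-point dosing, formazan growth read-out. Retest threshold 50% protection.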

For the molecule `O=S(=O)(O)c1cc2c(c(S(=O)(=O)O)c1)[O][Sb]1([O]2)[O]c2cc(S(=O)(=O)O)cc(S(=O)(=O)O)c2[O]1`, the EC50 was above 324 µM and the IC50 was above 324 µM. For the molecule `CCCN(CCCN)/[N+]([O-])=N\O`, the EC50 is above 8910 µM and the IC50 was 1580 µM.

For the molecule `C=C1C(=O)OC2C1C(OC(=O)/C(=C/C)COC(C)=O)CC1(CO1)C1C(OC(=O)/C(=C/C)CO)C=C(C)C21` (stereo unspecified), the outcome was inactive. For `COC(=O)c1ccc(S)c(S(=O)(=O)Nc2n[nH]c(N)n2)c1`, the EC50 was above 200 µM and the IC50 was above 200 µM. In the case of `CC(C)Cn1cnc2c(NCC(C)O)nc3ccccc3c21` (stereo unspecified), the EC50 was above 200 µM and the IC50 is 87.1 µM.

Regarding `c1cc[c]([Sn]([O]c2cccc3cccnc23)([O]c2cccc3cccnc23)[c]2ccccc2)cc1`, the result was inactive. For the molecule `O=[N+]([O-])c1ccccc1N=Nc1c(O)[nH]c2ccc(S(=O)(=O)O)cc12`, the EC50 is above 200 µM and the IC50 is above 200 µM. As for `N#CC(C#N)=c1ccc(=C2N3CCCC3CN2C23CC4CC(CC(C4)C2)C3)cc1` (stereo unspecified), the result was inactive. As to `C[C@H]1Oc2cc(O)c3ccc(=O)oc3c2C(=O)[C@@H]1C`, the EC50 was above 200 µM and the IC50 turned out to be 17 µM. Taken in the same sequence, the figures for `Cc1cc(=O)c2c([nH]1)NS(=O)(=O)NC2=O` were above 1480 µM and above 1480 µM. On the same counts, the results for `CC(NC(=O)OCc1ccccc1)NC(=O)OC(C)(C)C` (stereo unspecified) are above 200 µM and 102 µM.

On to `COc1ccc(C(=O)CCC2(C)OCCO2)cc1OC`, for which the EC50 was above 646 µM and the IC50 is 479 µM.

In the case of `Nc1nncc2n[nH]nc12`, the EC50 was above 200 µM and the IC50 was determined as 174 µM. `Cc1cc(C)nc(NS(=O)(=O)c2ccc(Nc3c4ccc(Cl)cc4nc4c(C(=O)Nc5ccc(S(=O)(=O)N=C(N)N)cc5)cccc34)cc2)n1`: the EC50 is above 49 µM and the IC50 was above 49 µM. Regarding `COc1ccc(C(=O)CCC(NC(C)=O)C(=O)O)cc1` (stereo unspecified), the EC50 is above 100 µM and the IC50 was above 100 µM. Consider `CN1C2C=CC1c1c(C3=NC(C)(C)CO3)cccc12` (stereo unspecified), for which the EC50 was above 200 µM and the IC50 was above 200 µM. As for `O=C(/C(=C\c1ccc(Cl)cc1)c1ccccc1)c1ccccc1`, the EC50 is above 11.7 µM and the IC50 is above 11.7 µM. For the molecule `Nc1nc(N)c(NC(=O)CCCO)c(=O)[nH]1`, the EC50 was above 200 µM and the IC50 is above 200 µM.

Consider `O=C([O-])c1ccc([I+]c2ccccc2)cc1`, for which the result was inactive.

For the molecule `CN1N=C(c2ccncc2)OC1c1ccccc1F` (stereo unspecified), the EC50 is above 200 µM and the IC50 was determined as 129 µM. For the molecule `CCc1ccccc1NC(=O)C(=O)C1C(=O)N(c2ccccc2)N=C1N` (stereo unspecified), the EC50 was above 708 µM and the IC50 came to 224 µM. On to `COC1=NS(=O)(=O)C(C)C(C)(C)O1` (stereo unspecified), for which the EC50 was above 427 µM and the IC50 was above 427 µM. For `COc1cccc2c(N)c3cccc(C(=O)NCCN(C)C)c3nc12`, the EC50 is above 0.2 µM and the IC50 turned out to be 0.0331 µM. For `COC(=O)C(C)(C)N=CN(C)C`, the EC50 is above 1450 µM and the IC50 was above 1450 µM. As to `Cc1cn([C@@H]2C[C@H](CO)[C@@H]2O)c(=O)[nH]c1=O`, the EC50 is above 200 µM and the IC50 was above 200 µM. In the case of `CC(=O)OC1COC(c2ccccc2)OC1C1OC(c2ccccc2)OCC1OC(C)=O` (stereo unspecified), the EC50 was above 200 µM and the IC50 was above 200 µM. In the case of `O=C(c1nsc(Cl)c1Cl)N1CCCCC1`, the EC50 was above 200 µM and the IC50 was above 200 µM. Regarding `COc1cc(C)cc2c(-c3c(OC(C)=O)cc(OC(C)=O)c4c3C[C@H](C)N(C(C)=O)[C@H]4C)cc(-c3cc(-c4c(OC(C)=O)cc(OC(C)=O)c5c4C[C@H](C)N(C(C)=O)[C@H]5C)c4cc(C)cc(OC)c4c3O)c(O)c12`, the EC50 was above 200 µM and the IC50 is 40.7 µM.

Consider `CCCC(=O)NC(Nc1ccc(S(=O)(=O)Nc2nc(C)cc(C)n2)cc1)(C(F)(F)F)C(F)(F)F`, for which the EC50 was above 200 µM and the IC50 was above 200 µM. With `CCCCS(=N)(=O)CC[C@H](N)C(=O)O` (stereo partly specified), the EC50 was above 562 µM and the IC50 stood at 214 µM. For the molecule `COC12C=CC(CC1)c1c2c(O)c2nc(C)c(C)nc2c1O` (stereo unspecified), the EC50 is above 200 µM and the IC50 worked out at 3.16 µM. In the case of `CSP(=S)(SC)SC(C)c1ccc(C)cc1` (stereo unspecified), the outcome was inactive. In the case of `CN(N)/N=N/c1nc[nH]c1C(N)=O`, the EC50 was above 2 µM and the IC50 was 1.45 µM. With `O=C1/C(=C\c2ccc(Cl)cc2Cl)Sc2scc(-c3cccc([N+](=O)[O-])c3)[n+]21`, the result was inactive. In the case of `Cc1ccc(S(=O)(=O)SCC(=O)c2ccc(Br)cc2)cc1`, the EC50 is 6.92 µM and the IC50 is 93.3 µM. Take `[N-]=[N+]=NC1(c2ccccc2)C(=O)Nc2ccccc2C1=O` (stereo unspecified): the EC50 was above 58.9 µM and the IC50 amounted to 30.2 µM. On the same counts, the results for `Cc1ccc(/C([O-])=C(/C(=S)Nc2ccccc2)[n+]2ccccc2)cc1` are above 200 µM and above 200 µM. Turning to `CN(C)CC1CCCC/C1=N/O` (stereo unspecified), the result was inactive. In the case of `CC(NC(=O)C(N)CC(=O)O)NC(=O)C1CCC1` (stereo unspecified), the EC50 was above 200 µM and the IC50 is above 200 µM. Consider `CCCC(=O)Nc1c(I)cc(I)c(CC(CC)C(=O)O)c1I` (stereo unspecified), for which the EC50 was above 200 µM and the IC50 is above 200 µM. Consider `O=C1COC(c2ccccc2O)=NN1CCCN1CCCC1`, for which the EC50 was above 525 µM and the IC50 is 372 µM. Take `Cc1ccccc1C1=[N+]([O-])c2ccc(Cl)cc2C1=O`: the outcome was inactive. For `COc1ccc(/C=C/c2ccc3ccccc3n2)cc1OC`, the EC50 is above 200 µM and the IC50 worked out at 36.3 µM. For the molecule `COc1cc(N=Nc2ccccc2C(=O)[O-])cc(/C=N/NC(=S)Nc2ccc(C)cc2)c1[O-].[Cu+].[Cu+]`, the outcome was inactive.

On to `CN1C(=O)N/C(=C\c2ccc(S(=O)(=O)N/N=C/c3ccccc3)cc2)C1=O`, for which the EC50 was above 200 µM and the IC50 worked out at 5.25 µM. On the same counts, the results for `O=C1CC(=O)NC(=NN2C(=O)CSC2c2ccc(Cl)cc2)N1` (stereo unspecified) are above 200 µM and 105 µM. Taken in the same sequence, the figures for `Cc1cc(S(=O)(=O)NC2=NCCN2Cc2ccccc2)c(S)cc1Cl` were above 200 µM and 58.9 µM. On the same counts, the results for `CCCCCC1=C(c2ccc(OC)c(S(=O)(=O)N(C)C)c2)c2cc(S(=O)(=O)N(C)C)c(OC)cc2S1(=O)=O` are above 32.4 µM and above 32.4 µM. `CSc1nc2c(N)ncnc2n1C`: the EC50 was above 200 µM and the IC50 was above 200 µM. As to `CC(=O)NCCc1c(-c2[nH]c3ccccc3c2CCNC(C)=O)[nH]c2ccccc12`, the EC50 was 51.3 µM and the IC50 was found to be 107 µM. With `CC(C)OP(=O)(Cc1cc(C(C)(C)C)c(O)c(C(C)(C)C)c1)OC(C)C`, the EC50 is above 67.6 µM and the IC50 is above 67.6 µM.

For `c1ccc(CN2COCO[C@H]3CCC[C@@H]32)cc1`, the EC50 is above 200 µM and the half-inhibitory concentration (IC50) was determined as 123 µM.

On to `CC(=O)N(C(C)=O)c1cnc2c(nc3cc(C)ccn32)c1C`, for which the EC50 was above 200 µM and the IC50 amounted to 52.5 µM. Taken in the same sequence, the figures for `CC(C)=CCCc1c(C)ccc2c1C(=O)C(=O)C(C(C)C)=C2` were above 60.3 µM and 4.47 µM. Taken in the same sequence, the figures for `O=C(CC(O)c1cccnc1)CC(O)c1cccnc1` (stereo unspecified) were above 200 µM and 2.82 µM. On the same counts, the results for `Cc1ccc(-c2c3nc(c(-c4ccc(C)cc4)c4ccc([nH]4)c(-c4ccc(C)cc4)c4nc(c(-c5ccncc5)c5ccc2[nH]5)C=C4)C=C3)cc1.Cc1ccc(-c2c3nc(c(-c4ccc(C)cc4)c4ccc([nH]4)c(-c4ccc(C)cc4)c4nc(c(-c5ccncc5)c5ccc2[nH]5)C=C4)C=C3)cc1.Cc1ccc(-c2c3nc(c(-c4ccc(C)cc4)c4ccc([nH]4)c(-c4ccc(C)cc4)c4nc(c(-c5ccncc5)c5ccc2[nH]5)C=C4)C=C3)cc1.Cc1ccc(-c2c3nc(c(-c4ccc(C)cc4)c4ccc([nH]4)c(-c4ccc(C)cc4)c4nc(c(-c5ccncc5)c5ccc2[nH]5)C=C4)C=C3)cc1.O=S(=O)([O-])C(F)(F)F.[Pd]` are above 25.1 µM and above 25.1 µM. Regarding `O=C(O)c1cc(/C=C/c2cc(O)ccc2O)ccc1O`, the EC50 was above 182 µM and the IC50 is 15.5 µM. On the same counts, the results for `O=Nc1c(O)ccc2ccccc12` are above 200 µM and 2.4 µM. On the same counts, the results for `O=C1c2cc([N+](=O)[O-])cnc2S(=O)(=O)N1c1ccc(Br)cc1` are above 200 µM and 95.5 µM.

As to `O=C(/C=C/c1ccc(Cl)c(Cl)c1)c1cccc2ccccc12`, the EC50 was above 3.16 µM and the IC50 is above 3.16 µM. `Cc1nc2ccccc2c(=O)n1NC(=S)Nc1ccc(Cl)cc1[N+](=O)[O-]`: the EC50 was above 93.3 µM and the IC50 was above 93.3 µM. Take `COC(=O)/C(C#N)=C(/NCCN)Nc1ccccc1`: the EC50 was above 200 µM and the IC50 is above 200 µM. Consider `CC(=O)OC1(C#N)CC2OC1C1C2N1C(=O)OC(C)(C)C` (stereo unspecified), for which the EC50 was above 427 µM and the IC50 was above 427 µM. For `O=C1/C(=N\O)c2ccccc2S1(=O)=O`, the result was inactive.

As to `O=C(Nc1ccccn1)Nc1cc(C(F)(F)F)ccc1Cl`, the EC50 is above 200 µM and the IC50 amounted to 182 µM. On the same counts, the results for `O=C1NC2c3c(I)sc(I)c3/C(=N\O)C2O1` (stereo unspecified) are above 200 µM and 16.2 µM. Taken in the same sequence, the figures for `CNC(=O)CNC(=O)CCC(=O)OC` were above 200 µM and above 200 µM. On the same counts, the results for `CCOC(=O)C1=CNN=CC12C(=O)C(C(=O)OCC)CC2C(=O)OCC` (stereo unspecified) are above 245 µM and above 245 µM. Consider `O=C(O)/C(Cl)=C(\Cl)Nc1cccc(C(F)(F)F)c1`, for which the result was inactive.

For the molecule `CCC1Sc2cc(OC)cc(N)c2NC1=O` (stereo unspecified), the EC50 is above 200 µM and the IC50 is above 200 µM. Turning to `Cn1c2ccccc2c2nnc(NCCCCO)nc21`, the EC50 is above 200 µM and the IC50 was above 200 µM.

Usually EC50 stands for the concentration at which the effect is half-maximal. By IC50 is commonly meant the point on the concentration scale where inhibition reaches its midpoint. Read a low IC50 as greater potency in that assay.
